Laboratory results published in patent US9238656B2, “Imidazo[4,5-b]pyridine derivatives as ALK and JAK modulators for the treatment of proliferative disorders” (priority 2012, dated 2016).

Experiments:
[1] = target: baculovirus-expressed ALK (Homo sapiens, UniProt Q9UM73); experiment: ALK kinase inhibition, TRF/ELISA; format: biochemical; conditions: read-out: ALK Potency
Description: Briefly, each 96-well plate was coated with 100 μL/well of 10 μg/mL substrate (GST-PLC-γ) in Tris-buffered saline (TBS). […] The reaction was initiated by adding enzyme (30 ng/mL ALK) and was allowed to proceed at 37° C. for 15 minutes. Detection of the phosphorylated product was performed by adding 100 μL/well of Eu-N1 labeled PT66 antibody (Perkin Elmer #AD0041). […] Data analysis was performed using ActivityBase (IDBS, Guilford, UK). IC50 values were calculated by plotting percent inhibition versus log10 of the concentration of compound and fitting to the nonlinear regression sigmoidal dose-response (variable slope) equation in XLFit (IDBS, Guilford, UK).

[2] = target: baculovirus-expressed JAK2 kinase (Homo sapiens, UniProt O60674); experiment: biochemical; conditions: 0.2 μM ATP; read-out: JAK2 Potency
Description: Compounds were tested for their ability to inhibit the kinase activity of baculovirus-expressed JAK2 kinase using the time-resolved fluorescence (TRF) detection system. […] The plates were coated with 100 μL/well of 10 μg/mL Neutravidin (Pierce #31000, Rockford, Ill.) in TBS at 37° C. for 2 h, followed by 100 μL/well of 1 μg/mL 15-mer peptide substrate (biotinyl-amino-hexanoyl-[…]-amide, Infinity Biotech Research and Resource, Aston, Pa.) at 37° C. for 1 h. […] Enzyme (15 ng/mL JAK2) was added and the reaction was allowed to proceed at room temperature for 20 min. […] Inhibition data were analyzed using ActivityBase (IDBS, Guilford, UK). IC50 values were calculated by plotting percent inhibition versus log10 of the concentration of compound and fitting to the nonlinear regression sigmoidal dose-response (variable slope) equation in XLFit (IDBS, Guilford, UK).

Chain of baculovirus-expressed JAK2 kinase (O60674 whole entry): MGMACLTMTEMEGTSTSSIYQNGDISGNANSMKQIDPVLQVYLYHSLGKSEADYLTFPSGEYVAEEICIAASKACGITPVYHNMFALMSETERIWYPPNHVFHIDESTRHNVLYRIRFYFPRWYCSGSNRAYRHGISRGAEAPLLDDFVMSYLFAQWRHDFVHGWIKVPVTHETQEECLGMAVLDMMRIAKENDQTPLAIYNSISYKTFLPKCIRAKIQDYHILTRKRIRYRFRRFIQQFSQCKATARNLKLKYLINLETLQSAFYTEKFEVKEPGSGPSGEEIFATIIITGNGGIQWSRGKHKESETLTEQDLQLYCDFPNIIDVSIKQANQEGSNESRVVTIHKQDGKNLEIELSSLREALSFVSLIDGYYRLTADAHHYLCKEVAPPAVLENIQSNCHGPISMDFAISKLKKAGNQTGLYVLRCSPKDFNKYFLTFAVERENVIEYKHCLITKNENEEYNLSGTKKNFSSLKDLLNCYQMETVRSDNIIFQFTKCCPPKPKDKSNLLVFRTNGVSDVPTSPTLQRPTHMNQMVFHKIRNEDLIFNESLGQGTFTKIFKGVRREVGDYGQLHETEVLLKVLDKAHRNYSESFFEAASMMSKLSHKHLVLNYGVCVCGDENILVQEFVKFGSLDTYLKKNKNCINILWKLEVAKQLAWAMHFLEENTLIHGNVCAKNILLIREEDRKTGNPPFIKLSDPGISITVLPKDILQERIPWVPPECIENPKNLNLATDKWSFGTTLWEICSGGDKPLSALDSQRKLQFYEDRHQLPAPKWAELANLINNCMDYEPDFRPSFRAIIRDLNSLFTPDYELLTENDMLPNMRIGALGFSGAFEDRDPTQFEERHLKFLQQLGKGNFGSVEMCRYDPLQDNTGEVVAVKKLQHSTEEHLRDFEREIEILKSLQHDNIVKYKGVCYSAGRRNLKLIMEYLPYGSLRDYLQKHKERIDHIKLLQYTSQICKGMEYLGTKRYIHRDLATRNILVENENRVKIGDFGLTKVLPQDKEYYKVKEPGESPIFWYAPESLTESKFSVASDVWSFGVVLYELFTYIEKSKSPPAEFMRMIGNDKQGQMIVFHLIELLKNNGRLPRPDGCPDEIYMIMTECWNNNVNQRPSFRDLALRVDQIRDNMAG
Chain of baculovirus-expressed ALK (Q9UM73 19-1620): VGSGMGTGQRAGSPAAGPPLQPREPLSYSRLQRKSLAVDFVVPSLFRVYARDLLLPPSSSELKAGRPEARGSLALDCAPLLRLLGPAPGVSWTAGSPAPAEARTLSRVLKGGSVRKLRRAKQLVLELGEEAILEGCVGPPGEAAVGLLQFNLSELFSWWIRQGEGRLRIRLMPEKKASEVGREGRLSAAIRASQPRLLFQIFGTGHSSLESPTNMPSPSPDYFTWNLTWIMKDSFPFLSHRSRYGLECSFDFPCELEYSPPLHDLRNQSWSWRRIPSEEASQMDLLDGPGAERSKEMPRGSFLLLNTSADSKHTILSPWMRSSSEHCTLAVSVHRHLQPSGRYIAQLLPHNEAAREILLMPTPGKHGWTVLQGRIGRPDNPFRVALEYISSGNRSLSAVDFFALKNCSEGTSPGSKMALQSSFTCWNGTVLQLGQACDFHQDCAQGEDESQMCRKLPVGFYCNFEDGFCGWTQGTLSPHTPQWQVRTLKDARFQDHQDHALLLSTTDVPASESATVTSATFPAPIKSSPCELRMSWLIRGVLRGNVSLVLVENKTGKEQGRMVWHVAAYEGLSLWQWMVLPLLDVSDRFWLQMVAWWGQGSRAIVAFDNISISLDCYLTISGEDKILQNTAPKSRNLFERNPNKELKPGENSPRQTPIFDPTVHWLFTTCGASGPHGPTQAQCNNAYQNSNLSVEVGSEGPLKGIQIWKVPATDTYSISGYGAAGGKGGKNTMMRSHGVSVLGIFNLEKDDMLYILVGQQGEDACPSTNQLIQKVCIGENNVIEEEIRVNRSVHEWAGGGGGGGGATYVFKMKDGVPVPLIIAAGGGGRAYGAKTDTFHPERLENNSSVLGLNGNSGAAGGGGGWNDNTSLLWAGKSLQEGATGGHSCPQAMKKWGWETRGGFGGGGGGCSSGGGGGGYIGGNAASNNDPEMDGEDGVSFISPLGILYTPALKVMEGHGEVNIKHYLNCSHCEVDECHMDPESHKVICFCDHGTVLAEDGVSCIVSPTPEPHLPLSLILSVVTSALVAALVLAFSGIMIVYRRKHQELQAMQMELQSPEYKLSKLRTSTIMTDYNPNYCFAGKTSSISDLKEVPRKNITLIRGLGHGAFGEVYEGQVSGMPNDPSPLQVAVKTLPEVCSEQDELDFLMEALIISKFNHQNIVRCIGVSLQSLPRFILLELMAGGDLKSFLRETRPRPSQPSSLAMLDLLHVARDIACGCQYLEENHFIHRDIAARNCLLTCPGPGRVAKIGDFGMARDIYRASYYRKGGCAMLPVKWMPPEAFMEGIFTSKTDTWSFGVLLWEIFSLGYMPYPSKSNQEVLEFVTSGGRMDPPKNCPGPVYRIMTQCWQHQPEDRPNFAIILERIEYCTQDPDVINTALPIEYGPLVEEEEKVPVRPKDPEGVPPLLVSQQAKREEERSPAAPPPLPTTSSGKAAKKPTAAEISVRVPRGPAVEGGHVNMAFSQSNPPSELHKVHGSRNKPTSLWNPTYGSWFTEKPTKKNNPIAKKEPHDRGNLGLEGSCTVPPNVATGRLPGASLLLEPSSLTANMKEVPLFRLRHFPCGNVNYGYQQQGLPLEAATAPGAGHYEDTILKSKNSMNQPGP

SMILES | IC50 [1] [nM] | IC50 [2] [nM]
CN1CCN(C(=O)COc2ccc(-c3nc4c(N[C@H]5[C@@H](C(N)=O)[C@@H]6C=C[C@H]5C6)c(Cl)cnc4[nH]3)cc2)CC1 [Compound CCXLIV, (1S,2S,3R,4R)-3-(6-chloro-2-(4-(2-(4-methylpiperazin-1-yl)-2-oxoethoxy)phenyl)-3H-imidazo[4,5-b]pyridin-7-ylamino)bicyclo[2.2.1]hept-5-ene-2-carboxamide] | < 100 | < 100
NC(=O)[C@@H]1[C@H](Nc2c(Br)cnc3[nH]c(-c4cccc(Cl)c4)nc23)[C@H]2C=C[C@@H]1C2 [Compound CXLII, (1S,2S,3R,4R)-3-[6-Bromo-2-(3-chloro-phenyl)-3H-imidazo[4,5-b]pyridin-7-ylamino]-bicyclo[2.2.1]hept-5-ene-2-carboxylic acid amide] | 100 to 1000 | < 100
CC(O)CN1CCN(C(=O)COc2ccc(-c3nc4c(N[C@H]5[C@@H](C(N)=O)[C@@H]6C=C[C@H]5C6)c(Cl)cnc4[nH]3)cc2)CC1 (stereo partly drawn) [Compound CCXLII, (1S,2S,3R,4R)-3-(6-chloro-2-(4-(2-(4-(2-hydroxypropyl)piperazin-1-yl)-2-oxoethoxy)phenyl)-3H-imidazo[4,5-b]pyridin-7-ylamino)bicyclo[2.2.1]hept-5-ene-2-carboxamide] | < 100 | < 100
NC(=O)[C@@H]1[C@H](Nc2c(Cl)cnc3[nH]c(-c4ccc(C(=O)N5CCNC(C(=O)O)C5)cc4)nc23)[C@H]2C=C[C@@H]1C2 (stereo partly drawn) [Compound CCXXVI, 4-(4-(7-((1R,2R,3S,4S)-3-carbamoylbicyclo[2.2.1]hept-5-en-2-ylamino)-6-chloro-3H-imidazo[4,5-b]211pyridine-2-yl)benzoyl)piperazine-2-carboxylic acid] | < 100 | < 100
O=C(NC1CC1)[C@@H]1[C@H](Nc2c(Cl)cnc3[nH]c(-c4sc(N5CCOCC5)nc4Cl)nc23)[C@H]2C=C[C@@H]1C2 [Compound CLXXIV, (1S,2S,3R,4R)-3-[6-Chloro-2-(4-chloro-2-morpholin-4-yl-thiazol-5-yl)-3H-imidazo[4,5-b]pyridin-7-ylamino]-bicyclo[2.2.1]hept-5-ene-2-carboxylic acid cyclopropylamide] | < 100 | 100 to 1000
NC(=O)[C@@H]1[C@H](Nc2c(Cl)cnc3[nH]c(-c4ccc(Cl)cc4)nc23)[C@H]2C=C[C@@H]1C2 [Compound CXLI, (1S,2S,3R,4R)-3-[6-Chloro-2-(4-chloro-phenyl)-3H-imidazo[4,5-b]pyridin-7-ylamino]-bicyclo[2.2.1]hept-5-ene-2-carboxylic acid amide] | 100 to 1000 | < 100
NC(=O)[C@@H]1[C@H](Nc2c(Br)cnc3[nH]c(-c4ccc(Cl)cc4)nc23)[C@H]2C=C[C@@H]1C2 [Compound CXLIII, (1S,2S,3R,4R)-3-[6-Bromo-2-(4-chloro-phenyl)-3H-imidazo[4,5-b]pyridin-7-ylamino]-bicyclo[2.2.1]hept-5-ene-2-carboxylic acid amide] | 100 to 1000 | < 100
NC(=O)[C@@H]1[C@H](Nc2c(Cl)cnc3[nH]c(-c4ccccc4F)nc23)[C@H]2C=C[C@@H]1C2 [Compound CXXVII, (1S,2S,3R,4R)-3-[6-Chloro-2-(2-fluoro-phenyl)-3H-imidazo[4,5-b]pyridin-7-ylamino]-bicyclo[2.2.1]hept-5-ene-2-carboxylic acid amide] | 100 to 1000 | < 100
CC(O)CN1CCC(Oc2ccc(-c3nc4c(N[C@H]5[C@@H](C(N)=O)[C@@H]6C=C[C@H]5C6)c(Cl)cnc4[nH]3)cc2)CC1 (stereo partly drawn) [Compound CCLII, (1S,2S,3R,4R)-3-(6-chloro-2-(4-(1-(2-hydroxypropyl)piperidin-4-yloxy)phenyl)-3H-imidazo[4,5-b]pyridin-7-ylamino)bicyclo[2.2.1]hept-5-ene-2-carboxamide] | < 100 | < 100
NC(=O)[C@@H]1[C@H](Nc2c(Cl)cnc3[nH]c(-c4cccc(Cl)c4)nc23)[C@H]2C=C[C@@H]1C2 [Compound CXL, (1S,2S,3R,4R)-3-[6-Chloro-2-(3-chloro-phenyl)-3H-imidazo[4,5-b]pyridin-7-ylamino]-bicyclo[2.2.1]hept-5-ene-2-carboxylic acid amide] | 100 to 1000 | < 100
N#Cc1ccc(-c2nc3c(N[C@H]4[C@@H](C(N)=O)[C@@H]5C=C[C@H]4C5)c(Br)cnc3[nH]2)cc1 [Compound CXLVII, (1S,2S,3R,4R)-3-[6-Bromo-2-(4-cyano-phenyl)-3H-imidazo[4,5-b]pyridin-7-ylamino]-bicyclo[2.2.1]hept-5-ene-2-carboxylic acid amide] | 100 to 1000 | < 100
CN(C)CCNC(=O)c1cccc(-c2nc3c(N[C@H]4[C@@H](C(N)=O)[C@@H]5C=C[C@H]4C5)c(Cl)cnc3[nH]2)c1 [Compound CCXXXI, (1S,2S,3R,4R)-3-(6-chloro-2-(3-(2-(dimethylamino)ethylcarbamoyl)phenyl)-3H-imidazo[4,5-b]pyridine-7-ylamino)pyridin[2.2.1]hept-5-ene-2-carboxamide] | < 100 | < 100
NC(=O)[C@@H]1[C@H](Nc2c(Cl)cnc3[nH]c(-c4cccc(-n5cccn5)c4)nc23)[C@H]2C=C[C@@H]1C2 [Compound CXXV, (1S,2S,3R,4R)-3-[6-Chloro-2-(3-pyrazol-1-yl-phenyl)-3H-imidazo[4,5-b]pyridin-7-ylamino]-bicyclo[2.2.1]hept-5-ene-2-carboxylic acid amide] | 1000 to 10000 | < 100
CN1CCN(c2nc(Cl)c(-c3nc4c(N[C@H]5[C@@H](C(=O)N(C)C)[C@@H]6C=C[C@H]5C6)c(Cl)cnc4[nH]3)s2)CC1 [Compound CCLXIV, (1S,2S,3R,4R)-3-((6-chloro-2-(4-chloro-2-(4-methylpiperazin-1-yl)thiazol-5-yl)-3H-imidazo[4,5-b]pyridin-7-yl)amino)-N,N-dimethylbicyclo[2.2.1]hept-5-ene-2-carboxamide] | < 100 | < 100
NC(=O)[C@@H]1[C@H](Nc2c(Cl)cnc3[nH]c(-c4ccc(C(=O)N5CCNCC5)cc4)nc23)[C@H]2C=C[C@@H]1C2 [Compound CCXX, (1S,2S,3R,4R)-3-(6-chloro-2-(4-(piperazine-1-carbonyl)phenyl)-3H-imidazo[4,5-b]pyridin-7-ylamino)bicyclo[2.2.1]hept-5-ene-2-carboxamide] | < 100 | < 100

Results, then the molecule that gave them:

IC50 [1] [nM] | IC50 [2] [nM] | SMILES
1000 to 10000 | > 10000 | NC(=O)[C@@H]1[C@H](Nc2c(Cl)cnc3[nH]c(-c4cccnc4N4CCOCC4)nc23)[C@H]2C=C[C@@H]1C2 [Compound XXXIV, (1S,2S,3R,4R)-3-[6-Chloro-2-(2-morpholin-4-yl-pyridin-3-yl)-3H-imidazo[4,5-b]pyridine-7-ylamino]-bicyclo[2.2.1]hept-5-ene-2-carboxylic acid amide]
100 to 1000 | < 100 | NC(=O)[C@@H]1[C@H](Nc2c(Cl)cnc3[nH]c(Nc4ccccc4)nc23)[C@H]2C=C[C@@H]1C2 [Compound LXVII, (1S,2S,3R,4R)-3-(6-Chloro-2-phenylamino-3H-imidazo[4,5-b]pyridine-7-ylamino)-bicyclo[2.2.1]hept-5-ene-2-carboxylic acid amide]
> 10000 | 1000 to 10000 | COc1cc(N2CCOCC2)ccc1-c1nc2c(N3C[C@@H]4C[C@H]3CN4C(=O)OC(C)(C)C)c(Cl)cnc2[nH]1 [Compound XXXVI, (1S,4S)-5-[6-Chloro-2-(2-methoxy-4-morpholinj-4-yl-phenyl)-3H-imidazol-[4,5-b]pyridine-7-yl]-2,5-diaza-bicyclo[2.2.1]heptane-2-carboxylic acid tert-butyl ester]
< 100 | < 100 | COc1cc(C2=CCN(C[C@H](C)O)CC2)ccc1-c1nc2c(N[C@H]3[C@@H](C(N)=O)[C@@H]4C=C[C@H]3C4)c(Cl)cnc2[nH]1 [Compound XLVIII, (1S,2S,3R,4R)-3-(6-Chloro-2-[4-[1((S)-2-hydroxypropyl)-1,2,3,6-tetrahydro-pyridin-4-yl]-2-methoxyphenyl]-3H-imidazo[4,5-b]pyridine-7-ylamino)-bicyclo[2.2.1]hept-5-ene-2-carboxylic acid amide]
100 to 1000 | 100 to 1000 | COc1ccncc1-c1nc2c(N[C@H]3[C@@H](C(N)=O)[C@@H]4C=C[C@H]3C4)c(Cl)cnc2[nH]1 [Compound XXXV, (1S,2S,3R,4R)-3-[6-Chloro-2-(4-methoxy-pyridin-3-yl)-3H-imidazo[4,5-b]pyridine-7-ylamino]-bicyclo[2.2.1]hept-5-ene-2-carboxylic acid amide]
100 to 1000 | < 100 | NC(=O)[C@@H]1[C@H](Nc2c(Cl)cnc3[nH]c(-c4cccc(F)c4)nc23)[C@H]2C=C[C@@H]1C2 [Compound CXXVIII]
< 100 | < 100 | Cc1cc(N2CCOCC2)ccc1-c1nc2c(N[C@H]3[C@@H](C(N)=O)[C@@H]4C=C[C@H]3C4)c(Br)cnc2[nH]1 [Compound CXXX, (1S,2S,3R,4R)-3-[6-Bromo-2-(2-methyl-4-morpholin-4-yl-phenyl)-3H-imidazo[4,5-b]pyridin-7-ylamino]-bicyclo[2.2.1]hept-5-ene-2-carboxylic acid amide]
